Source: paper PMC8427247, “Actinobacillus utilizes a binding protein–dependent ABC transporter to acquire the active form of vitamin B6” (The Journal of Biological Chemistry, 2021)

Columns and labels:
[1] = system: AfuA H205A; parameters: method as in PMID 26295949; conditions: AfuA H205A mutant; cited from earlier work
[2] = system: AfuA D206A; parameters: method as in PMID 26295949; conditions: AfuA D206A mutant; cited from earlier work
[3] = target: T1, P5PA WT (Actinobacillus pleuropneumoniae, UniProt B0BUC2); experiment: Microscale thermophoresis (MST) with fluorescently labeled P5PA; assay type: binding
Method: (§1) P5PA was fluorescently labeled using RED-NHS Second Generation Protein Labeling Kit (NanoTemper). Briefly, 90 μl of purified apo-P5PA at 10 μM was mixed with 10 μl of the provided labeling dye at 300 μM. The mixture was incubated in dark for 30 min and loaded to a special gravity column that is pre-equilibrated in PBS with 0.05% Tween-20 (PBST). After washing the column with 550 μl of PBST, another 450 μl of PBST was added to elute the fluorescently labeled apo-P5PA. The yield of the labeled P5PA was determined by 280-nm readings made on a Nanodrop.
(§2) A target compound was successively diluted in PBST by a dilution factor of two to make a total of 16 different concentrations. Then, 10 μl of the labeled P5PA was added to an equal volume of the diluted compounds and loaded to standard capillaries (NanoTemper). The Binding Affinity Mode of Monolith NT.115 (NanoTemper) was used to detect fluorescence changes and deduct Kd.
(§3) Supplementary Table2. The concentrations of protein and compounds used in MST
(§4) Labeled Protein Concentration Compound Highest Working
(§5) P5PA 25 Pyridoxal-5’-phosphate (P5P) 1.40 µM
(§6) P5PA 25 Pyridoxamine (PM) 448 mM

[4] = target: T1, P5PA WT; experiment: Isothermal titration calorimetry (ITC), ligand titrated into P5PA; assay type: binding
Method: The purification method described in the P5PA protein purification section was modified as follows in order to purify apo-P5PA for ITC. Before elution, P5PAwas denatured in the gravity column. To denature P5PA, 6 M guanidine hydrochloride (GdHCl) was applied to the column, after which a refolding step was performed by stepwise addition of 4.5 M GdHCl, 3 M GdHCl, and finally 1.5 M GdHCl. The protein was then washed with lysis buffer and eluted with elution buffer ([15]). The subsequent purification steps were the same as previously described.
ITC was performed using an auto-iTC200 (Microcal) at the Structure and Biophysical Core Facility within the Peter Gilgan Centre for Research & Learning (Hospital for Sick Children, Toronto, Canada). Runs consisted of titrating ligand loaded into the injection syringe against purified protein, which was loaded into the sample cell. About 45 μM of purified P5PA was stored in ITC buffer (20 mM Tris, pH 8, and 100 mM NaCl) at 4 °C. The same buffer was used to make solutions of 300 μM G6P, 300 μM P5P, and 45 μM bovine serum albumin. P5PA, bovine serum albumin, and ITC buffer alone were titrated with P5P or G6P. The parameter setting was 2 μl/injection for a total of 20 injections. Data applied to calculate binding constants were referenced against runs performed with ligand alone to control for the heat of ligand solvation.

[5] = system: AfuA E229A; parameters: method as in PMID 26295949; conditions: AfuA E229A mutant; cited from earlier work
[6] = system: A. pleuropneumoniae pdxS and pdxT disrupted mutants; parameters: method as in PMID 28448619; conditions: supplementation with 10 μM P5P; cited from earlier work
[7] = system: E. coli K-12 ΔpdxB mutant; experiment: E. coli growth assay in M9 minimal media supplemented with P5P; assay type: cell-based, Escherichia coli
Method: The ΔpdxB mutant of E. coli K-12 strain was obtained from the Keio collection ([45]). The ΔpdxB mutant was transformed with either pSC101, pSC101-P5PAB, or pSC101-P5PAB + AfuC and grown in LB broth overnight at 37 °C with shaking. The starters were then washed twice with M9 medium and inoculated at an absorbance of 0.05 at 600 nm into M9 medium supplemented with P5P. The P5P concentrations used were 0, 1, 2.5, and 5 μM. Growth assays were performed in both culture tubes and 100-well microplates ([15], [17]). For cell growth in culture tubes, 5 ml of P5P-supplemented M9 was used, and readings of absorbance at 600 nm were measured after a 23-h incubation at 37 °C with shaking. For cell growth in 100-well microplates, 200 μl of P5P-supplemented M9 was applied to each well, and microplates were incubated in a Bioscreen C microplate reader (Growth Curves USA) at 37 °C with shaking. Absorbance values at 600 nm were measured every 15 min for a time course of 40 h.

[8] = system: WT strain of E. coli K-12; experiment: as above; assay type: cell-based, Escherichia coli; conditions: P5P 0 to 10 μM, 24 h incubation
[9] = target: T2, P5PA H203A (Actinobacillus pleuropneumoniae, UniProt B0BUC2, H229A); experiment: Microscale thermophoresis (MST) with fluorescently labeled P5PA mutant; assay type: binding
T2 sequence (B0BUC2 26-343 H229A): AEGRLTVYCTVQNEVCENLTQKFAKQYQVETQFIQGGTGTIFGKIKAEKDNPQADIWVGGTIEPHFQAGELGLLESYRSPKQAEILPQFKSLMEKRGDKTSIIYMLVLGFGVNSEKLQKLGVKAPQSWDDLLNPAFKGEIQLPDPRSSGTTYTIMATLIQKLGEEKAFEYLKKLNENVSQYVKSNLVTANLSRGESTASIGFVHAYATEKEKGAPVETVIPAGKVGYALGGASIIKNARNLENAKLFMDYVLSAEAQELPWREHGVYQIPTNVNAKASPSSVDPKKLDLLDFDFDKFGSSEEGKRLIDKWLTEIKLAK
Method: as §1, §2, §3, §4, §5, §6

[10] = target: T3, P5PA T149A (Actinobacillus pleuropneumoniae, UniProt B0BUC2, T175A); experiment: as above; assay type: binding
T3 sequence (B0BUC2 26-343 T175A): T2 sequence (B0BUC2 26-343 H229A)
Method: as §1, §2, §3, §4, §5, §6

[11] = target: T4, P5PA Y103A (Actinobacillus pleuropneumoniae, UniProt B0BUC2, Y129A); experiment: as above; assay type: binding
T4 sequence (B0BUC2 26-343 Y129A): T2 sequence (B0BUC2 26-343 H229A)
Method: as §1, §2, §3, §4, §5, §6

[12] = MST, P5PA WT, n = 3, read-out: Kd

In the case of `O=C[C@H](O)[C@@H](O)[C@H](O)[C@H](O)COP(=O)(O)O` [G6P, glucose-6-phosphate], the binding affinity [1] is listed as “undetectable”, the binding affinity [2] is listed as “undetectable” and the Kd [3, 12] is listed as 11000 ± 3000 µM. The binding activity ([4]; ITC, 300 μM ligand into 45 μM P5PA) was “no significant binding activity”, the “released heat for each titration” value ([4]; ITC, 300 μM ligand into 45 μM P5PA, insufficient to calculate a dissociation constant) was “approximately 3 kJ/mol” and the binding affinity [5] was “undetectable”.
For `Cc1ncc(COP(=O)(O)O)c(C=O)c1O` [P5P, pyridoxal-5′-phosphate], the “growth of pdxS/pdxT mutants” value [6] is listed as “rescued growth”, the “growth defects of the four transformants and the ΔpdxB mutant” value ([7]; M9, P5P at 5 μM) is listed as “partially restored” and the “growth of ΔpdxB mutant expressing pSC101-P5PAB + AfuC” value ([7]; M9, P5P at 1 and 2.5 μM, p < 0.01, two-tailed t test) is listed as “rescued”. The “growth of ΔpdxB mutant” value ([7]; M9 minimal media, P5P 0 to 10 μM, 24 h incubation) was “severe growth deficiency in all conditions except P5P concentrations of 5 and 10 μM”, the “growth of WT strain” value [8] was “not affected by the concentration of supplemented P5P” and the Kd [3] was 0.028 ± 0.015 µM. It also gave a Kd [9] of 10 ± 4 µM, a Kd [10] of 1.3 ± 0.3 µM and a Kd [11] of 17 ± 8 µM. For the same molecule, the Kd [4] was 0.036 ± 0.007 µM.
In the case of `Cc1ncc(CO)c(C=O)c1O` [PL, pyridoxal], the Kd [3, 12] is reported as 13000 ± 4000 µM.
With `Cc1ncc(CO)c(CN)c1O` [PM, pyridoxamine] the Kd [3, 12] was 8000 ± 4000 µM.
